Tests used:
[1] = 1O2 quantum yield by DPBF photooxidation; format: physicochemical; settings: oxygenated methanol, 450 nm
Protocol: To quantify the generation of ^1O2 produced by the complexes, 1,3-diphenylisobenzofuran (DPBF) was used as a ^1O2 scavenger.
The 1O2 quantum yields were determined by tracking the photooxidation of 1,3-
fully aerated and exposed to LED irradiation at 450 nm (1 3 mW cm−2).
reaction mixture at 411 nm was recorded at one-second intervals.
cumulative absorbance changes at 411 nm versus cumulative irradiation time.

[2] = Luminescence lifetime of the excited state; format: physicochemical; settings: PBS
Excerpt: 1.2.6 Luminescence lifetime
at room temperature with a Horiba Scientific FL-1065 (FluoroLog) using a pulse laser (486
nm) as the excitation source.
Lifetime of excited state (ns)

E. coli NDM-1 = settings: 320 μM, 1 h
Protocol: (§1) In parallel, a control set was incubated without compounds for 50 min, followed by incubation with 75 μM meropenem trihydrate for 10 min. Cells were then pelleted, washed, resuspended in water, lysed, and clarified before LC-MS analysis.
(§2) 1.12 LC-MS accumulation assay
(§3) 1.12.1 Bacterial Strains and Growth Conditions:
(§4) Accumulation assay was performed two E. coli K-12 MG1655 strains transfected with pSU18 vector containing NDM-1 expression or an empty vector control. Cell growth was performed in Luria-Bertani (LB) broth (NaCl 10g/L, K2HPO4 6.3 g/L, KH2PO4 1.8 g/L, sodium citrate […]
(§5) 1.12.2 Preparation of Accumulation Assay Samples for LC-MS Analysis:
(§6) Assay was adapted from the work of Geddes et al. and Widya et al.9–11 E. coli MG1655 pSU18 NDM-1 and pSU18 Empty were grown from single colonies at 37 °C with aeration, while shaking at 180 rpm for 18 hours. The overnight suspensions were subcultured (1:100) in fresh LB and incubated to yield an OD600 of 0.55-0.60. The were harvested and pelleted at 3500 × g for 15 minutes at 4 °C. The pellets were washed with Meuller -Hinton II (MHII) broth and pelleted again under the same conditions. The pellets were resuspended in a n adjusted volume of fresh MHII to achieve an OD 600 ≈ 10.0. Shielded from ambient light, cells were incubated with 320 μM of metal complex for 1 hour while shaking at 180 rpm. Separately, another set of cells was incubated under identical conditions without any added metal complex. Cells […]
(§7) incubated with metal complex were maintained incubating under the same conditions for an additional 10 minutes, while the second set of cells was incubated with 75 μM of meropenem trihydrate for 10 minutes. After treatment, 10 μL of each cell suspension was taken and dilution 1:10 PBSA for OD600 viability analysis. A 150 μL aliquot of each cell suspension was layered onto 150 μL of cold silicone oil mixture (1:9, v/v AR20:High temperature silicone oil) and centrifuged at 3500 × g for 1 hour at 4 °C. The aqu eous and oil supernatant were carefully aspirated to isolate the cell pellets, which were resuspended in 50 μL of water and transferred to a fresh microplate. For lysis, a 1:1 (v/v) mixture of acetonitrile and methanol was added to each sample, and the sam ples were freeze thawed at -80 °C for approximately 18 hours.
(§8) Thawed samples were clarified by two rounds of centrifugation at 3500 × g for 1 hour at 4 °C, […]
(§9) External calibration curves were prepared by mixing compound at increasing concentration with extracted cell lysate (prepared in parallel to analyte containing samples) in concentrations […]
(§10) nM were also prepared to assess quantitative accuracy. Samples were submitted to LCMS analysis as biological triplicate using a single calibration curve. […]
(§11) was spiked into each calibration and analyte sampl e as an internal standard.

E. coli empty = settings: 320 μM, 1 h
Protocol: as §1, §2, §3, §4, §5, §6, §7, §8, §9, §10, §11

NDM-1 in E. coli NDM-1 = NDM-1 in E. coli NDM-1 (Klebsiella pneumoniae, UniProt C7C422); settings: E. coli NDM-1, nitrocefin
Protocol: shaking at 180 rpm for 18 hours. The overnight suspensions were subcultured (1:100) in fresh LB and incubated to yield an OD600 of 0.55-0.60. The were harvested and pelleted at 3500  g for 15 minutes at 4 °C. The pellets were washed with PBS and pelleted again under the same
conditions. The bacteria were then stored as pellets at 4 C until required for the assay and to
be used within 5 hours. To prepare the bacteria fo r the assay, a pellet was resuspended in an
adjusted volume of fresh PBS to achieve an OD600 ≈ 5.0 and then kept at 4 C for 1 hr before
being used. The bacteria were then diluted to OD600 ≈ 2.0 in fresh PBS and used immediately.
inhibitor control, and one row of Bacteria Buffer B (50 µL) which served as a no-bacteria
control (providing five rows in total). Bacteria stock (OD600 ≈ 2.0, 40 µL, final concentration
of bacteria in well = OD600 ≈ 0.8) was added to each well of the first four rows, the plate was
sealed, and the samples then pre-incubated for 60 min under either ‘dark’ or ‘light’ conditions
Under ‘dark’ conditions, the plate was left sealed in a
substrate in well = 100 µM) was conducted manually and then the plate immediately resealed
substrate had been completely consumed. Method conditions are as follows: cycle time = 100

NDM-1 = NDM-1 (Klebsiella pneumoniae, UniProt C7C422)
Chain of NDM-1 (C7C422 31-270 limits assumed): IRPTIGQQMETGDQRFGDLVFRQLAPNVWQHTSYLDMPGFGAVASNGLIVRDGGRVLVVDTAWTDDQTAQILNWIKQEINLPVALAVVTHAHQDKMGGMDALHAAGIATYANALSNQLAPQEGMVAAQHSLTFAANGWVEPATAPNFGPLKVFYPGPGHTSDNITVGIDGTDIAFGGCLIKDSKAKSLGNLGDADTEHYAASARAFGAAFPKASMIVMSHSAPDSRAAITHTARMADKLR

Chain of NDM-1 in E. coli NDM-1 (C7C422 29-270 limits assumed): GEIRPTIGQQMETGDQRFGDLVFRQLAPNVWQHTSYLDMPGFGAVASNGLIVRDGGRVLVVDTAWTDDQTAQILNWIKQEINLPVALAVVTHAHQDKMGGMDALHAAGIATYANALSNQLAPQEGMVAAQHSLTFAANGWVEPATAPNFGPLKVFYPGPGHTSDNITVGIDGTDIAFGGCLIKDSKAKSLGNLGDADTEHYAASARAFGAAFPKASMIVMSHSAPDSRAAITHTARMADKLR

With F[P-](F)(F)(F)(F)F.F[P-](F)(F)(F)(F)F.[Ru+2].c1ccc(-c2ccccn2)nc1.c1ccc(-c2ccccn2)nc1.c1ccc(-n2cnc3c4cccnc4c4ncccc4c32)cc1 [Ru2, [Ru(2,2'-bipyridine)2(1-phenyl-imidazo[4,5,f][1,10]phenanthroline)](PF6)2] the “1O2 quantum yield (ΦΔ)” value [1] was 0.87, the “Luminescence lifetime of excited state” value [2] was 463 ns and the Accumulation (E. coli NDM-1) was 494 nM/OD600. The Accumulation (E. coli empty) was 405 nM/OD600, the “IC50(dark)” value (NDM-1 in E. coli NDM-1; dark) was “no inhibition” and the “IC50(light)” value (NDM-1 in E. coli NDM-1; light 450 nm, 60 J cm^-2) was “no inhibition”. For the same molecule, the “Fold difference in IC50(light) between Ru1 and untargeted control Ru2” value (NDM-1; 450 nm, 20 J cm^-2) was “approximately 25 fold”, the IC50 (NDM-1; read-out: IC50(light), recombinant NDM-1, nitrocefin, light 450 nm, 20 J cm^-2) was 5.6 ± 0.5 µM and the “IC50(dark)” value (NDM-1; recombinant NDM-1, nitrocefin, dark) was “no inhibition”.
